Literature values, collected in patent US20080139609A1, “GRANISETRON COMPOSITIONS” (priority 2006, published 2008).

Tests used:
[1] = in water and in normal saline at 20° C.
[2] = tested on: other serotonin receptors; settings: selective 5-HT3 receptor antagonist

| Solubility [1] | Affinity for other serotonin receptors [2] | Structure (SMILES) |
| --- | --- | --- |
| readily soluble | – | CN1C2CCCC1CC(NC(=O)c1nn(C)c3ccccc13)C2.Cl (stereo not drawn) [Granisetron hydrochloride, endo-N-(9-methyl-9-azabicyclo[3.3.1]non-3-yl)-1-methyl-1H-indazole-3-carboxamide hydrochloride] |
| – | little or no affinity | CN1C2CCCC1CC(NC(=O)c1nn(C)c3ccccc13)C2 (centres unmarked) [Granisetron] |
